In US20230405075A1, “PR[…] EXTRACT OR ITS ISOLATED ALKALOIDS AND CANNABIS EXTRACT OR ITS ISOLATED CANNABINOIDS, AND COSMETIC AND/OR PHARMACEUTICAL USE THEREOF” (HERBA INVEST, PTE. LTD., priority 2020, published 2023):

Assay: Franz cell diffusion assay, transcutaneous permeation
Assay type: in vitro ADME, porcine
Details: in the presence of the combined extracts
Method: The transcutaneous permeation of w/o creams according to Examples 2 and 3 were evaluated by using the Franz cell diffusion assay and compared with the permeation of w/o creams containing Mitragyna alkaloids only and Cannabis cannabinoids only, according to examples 4 and 5.
As known, Franz cell diffusion assay is the most common and reliable method to evaluate the transcutaneous permeation of molecules. Such an assay is well known in the art and a detailed description is not necessary.
The assay conditions were as follows: • cells used: 0.9 and 1.4 mm diameter. • membrane: porcine ear skin, 1 mm thickness. • temperature of incubation: 32° C.
The results of the evaluations are shown in FIG. 1, where the different bars relate to: • a cream according to Example 4, with 1% Mitragyna alkaloids; • a cream according to Example 5, with 1% cannabinoids; • a cream according to Example 2, containing 0.5% purified Mitragyna alkaloids and 0.5% cannabinoids; • a cream with enhancer according to Example 3, also containing 0.5% purified Mitragyna alkaloids and 0.5% cannabinoids, • respectively.
The particular w/o cream according to Example 2 used in the evaluation of transcutaneous permeation had the following composition (percentages in weight): • Diisostearoyl Polyglyceryl-3 Dimer Dilinoleate: 3% • Synthetic Beeswax: 0.2% • Hydrogenated Castor Oil: 0.3% • Paraffinum liquidum: 7% • Isopropyl Myristate: 7% • Hydrogenated polyisobutene: 7.5% • Aqua (water): 60% • Magnesium sulphate heptahydrate: 1% • Mitragyna purified extract (or isolated alkaloids) alcoholic solution: the amount/concentration resulting in a 0.5% alkaloid concentration of in the final formulation; • Cannabis purified extract (or isolated cannabinoids) alcoholic solution: the amount/concentration resulting in a 0.5% […] concentration in the final formulation.

| SMILES | concentration detected in Franz cell receptor (order of selective passage) |
| --- | --- |
| CC[C@@H]1CN2CCc3c([nH]c4cccc(OC)c34)[C@H]2C[C@@H]1/C(=C\OC)C(=O)OC [speciociliatine] | highest concentrations detected |
| C=C[C@H]1CN2CCc3c([nH]c4cccc(OC)c34)[C@H]2C[C@@H]1/C(=C\OC)C(=O)OC [isopaynantheine] | highest concentrations detected |
| CC[C@@H]1CN2CCc3c([nH]c4cccc(OC)c34)[C@@H]2C[C@@H]1/C(=C\OC)C(=O)OC [mitragynine] | in lower percentage |
| C=C[C@H]1CN2CCc3c([nH]c4cccc(OC)c34)[C@@H]2C[C@@H]1/C(=C\OC)C(=O)OC [paynantheine] | in lower percentage |
| C=C(C)[C@@H]1CCC(C)=C[C@H]1c1c(O)cc(CCCCC)cc1O [cannabidiol] | increase in concentration |
